Data from ChEMBL document CHEMBL4627310, “Design, synthesis and biological evaluation of 3-nitro-1,8-naphthalimides as potential antitumor agents” (Bioorg Med Chem Lett, 2020).

Legend:
T-24 = assay: Antiproliferative activity against human T24 cells assessed as cell growth inhibition measured after 48 hrs by MTT assay; type: functional, cell-based; settings: T-24, 48 h
L02 = assay: Cytotoxicity against human HL7702 cells assessed as cell growth inhibition measured after 48 hrs by MTT assay; type: cell-based; settings: L02, 48 h
SK-OV-3 = assay: Antiproliferative activity against human SKOV3 cells assessed as cell growth inhibition measured after 48 hrs by MTT assay; type: functional, cell-based; settings: SK-OV-3, 48 h
SMMC-7721 = assay: Antiproliferative activity against human SMMC7721 cells assessed as cell growth inhibition measured after 48 hrs by MTT assay; type: functional, cell-based; settings: SMMC-7721, 48 h
A549 = assay: Antiproliferative activity against human A549 cells assessed as cell growth inhibition measured after 48 hrs by MTT assay; type: functional, cell-based; settings: A549, 48 h
HepG2 = assay: Antiproliferative activity against human HepG2 cells assessed as cell growth inhibition measured after 48 hrs by MTT assay; type: functional, cell-based; settings: HepG2, 48 h

IC50 (SK-OV-3): 58.8 µM
IC50 (SMMC-7721): > 100 µM
IC50 (A549): 44.1 µM
IC50 (HepG2): 51.3 µM
Compound: O=C1c2cccc3cc([N+](=O)[O-])cc(c23)C(=O)N1Nc1nc2ccccc2s1
IC50 (T-24): 31.2 µM
IC50 (L02): 65.3 µM
